Experimental data from PubChem BioAssay (NCI).
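Cultured in 96-well plates, cells were exposed to test compound for 48 hours across five concentrations. TGI marks complete inhibition of growth.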

Assays:
Assay in all cases: NCI-60 cell line screen, 48 h
SF-295 CNS = tested on: SF-295 CNS
KM12 colon = tested on: KM12 colon
TK-10 renal = tested on: TK-10 renal
U251 CNS = tested on: U251 CNS
UO-31 renal = tested on: UO-31 renal
SK-MEL-28 melanoma = tested on: SK-MEL-28 melanoma
A549 NSCLC = tested on: A549 NSCLC
COLO 205 colon = tested on: COLO 205 colon
BT-549 breast = tested on: BT-549 breast
SK-MEL-5 melanoma = tested on: SK-MEL-5 melanoma

c1ccc2c(c1)Cn1c-2nc2ccccc21
TGI (SF-295 CNS): > 100 µM
TGI (KM12 colon): > 100 µM
TGI (TK-10 renal): > 100 µM
TGI (U251 CNS): > 100 µM
TGI (UO-31 renal): 23 µM
TGI (SK-MEL-28 melanoma): > 100 µM
TGI (A549 NSCLC): > 100 µM
TGI (COLO 205 colon): > 100 µM
TGI (BT-549 breast): > 100 µM
TGI (SK-MEL-5 melanoma): > 100 µM

COP(=O)(OC)C1=c2c(C)noc2=C2C=COC2C1=O (configuration not stated)
TGI (SF-295 CNS): > 100 µM
TGI (KM12 colon): > 100 µM
TGI (TK-10 renal): > 100 µM
TGI (U251 CNS): > 100 µM
TGI (UO-31 renal): > 100 µM
TGI (A549 NSCLC): > 100 µM
TGI (COLO 205 colon): > 100 µM
TGI (BT-549 breast): > 100 µM
TGI (SK-MEL-5 melanoma): > 100 µM

CC(C)c1cc2c(cc1S(=O)(=O)O)[C@@]1(C)CCC[C@@](C)(C(=O)O)C1CC2 (some centres not stated)
TGI (SF-295 CNS): > 100 µM
TGI (KM12 colon): > 100 µM
TGI (TK-10 renal): > 100 µM
TGI (U251 CNS): > 100 µM
TGI (UO-31 renal): > 100 µM
TGI (SK-MEL-28 melanoma): > 100 µM
TGI (A549 NSCLC): > 100 µM
TGI (COLO 205 colon): > 100 µM
TGI (BT-549 breast): > 100 µM
TGI (SK-MEL-5 melanoma): > 100 µM

CCC(=O)NCC1CCCN2CCCCC12 (configuration not stated)
TGI (SF-295 CNS): > 100 µM
TGI (KM12 colon): > 100 µM
TGI (TK-10 renal): > 100 µM
TGI (U251 CNS): > 100 µM
TGI (UO-31 renal): > 100 µM
TGI (SK-MEL-28 melanoma): > 100 µM
TGI (A549 NSCLC): > 100 µM
TGI (COLO 205 colon): > 100 µM
TGI (BT-549 breast): > 100 µM
TGI (SK-MEL-5 melanoma): > 100 µM

[N-]=[N+]=NC(c1ccccc1)(c1ccccc1)c1ccccc1
TGI (SF-295 CNS): 27.1 µM
TGI (KM12 colon): 46.8 µM
TGI (TK-10 renal): 32.4 µM
TGI (U251 CNS): 29.2 µM
TGI (UO-31 renal): 30 µM
TGI (SK-MEL-28 melanoma): 37.8 µM
TGI (A549 NSCLC): 34.3 µM
TGI (COLO 205 colon): 27.8 µM
TGI (BT-549 breast): 37.7 µM
TGI (SK-MEL-5 melanoma): 26.8 µM

CC(=O)c1c2c(c3ccccc3c1O)O[C@@H]1OCC[C@H]21
TGI (SF-295 CNS): > 100 µM
TGI (KM12 colon): > 100 µM
TGI (TK-10 renal): > 100 µM
TGI (U251 CNS): > 100 µM
TGI (UO-31 renal): > 100 µM
TGI (SK-MEL-28 melanoma): > 100 µM
TGI (A549 NSCLC): > 100 µM
TGI (COLO 205 colon): > 100 µM
TGI (BT-549 breast): > 100 µM
TGI (SK-MEL-5 melanoma): > 100 µM

O=C(C1OC1c1ccc(Br)cc1O)C12CC3CC(CC(C3)C1)C2 (configuration not stated)
TGI (SF-295 CNS): 43 µM
TGI (KM12 colon): 41.4 µM
TGI (TK-10 renal): > 100 µM
TGI (U251 CNS): 30.8 µM
TGI (UO-31 renal): 31.3 µM
TGI (SK-MEL-28 melanoma): 46.8 µM
TGI (A549 NSCLC): > 100 µM
TGI (SK-MEL-5 melanoma): 56.8 µM

COC(=O)C1CC(C=[N+](C)C)=C(SC)N1C(=O)OCc1ccccc1 (configuration not stated)
TGI (SF-295 CNS): > 100 µM
TGI (KM12 colon): > 100 µM
TGI (TK-10 renal): > 100 µM
TGI (U251 CNS): > 100 µM
TGI (UO-31 renal): > 100 µM
TGI (SK-MEL-28 melanoma): > 100 µM
TGI (A549 NSCLC): > 100 µM
TGI (COLO 205 colon): > 100 µM
TGI (BT-549 breast): > 100 µM
TGI (SK-MEL-5 melanoma): > 100 µM

CC(=O)Oc1cccc2c1C(=O)CCCC2
TGI (SF-295 CNS): > 100 µM
TGI (KM12 colon): > 100 µM
TGI (TK-10 renal): > 100 µM
TGI (U251 CNS): > 100 µM
TGI (UO-31 renal): > 100 µM
TGI (SK-MEL-28 melanoma): > 100 µM
TGI (A549 NSCLC): > 100 µM
TGI (COLO 205 colon): > 100 µM
TGI (BT-549 breast): > 100 µM
TGI (SK-MEL-5 melanoma): > 100 µM

O=C(/C=C/c1ccc2c(c1)OCO2)c1ccc(O)cc1
TGI (SF-295 CNS): 32.6 µM
TGI (TK-10 renal): 33.1 µM
TGI (U251 CNS): 26.9 µM
TGI (UO-31 renal): 26.2 µM
TGI (SK-MEL-28 melanoma): 41.1 µM
TGI (A549 NSCLC): 50.7 µM
TGI (COLO 205 colon): 31.3 µM
TGI (BT-549 breast): 27.4 µM
TGI (SK-MEL-5 melanoma): 29.1 µM

COc1nncc2[nH]c(-c3ccccc3)cc12
TGI (SF-295 CNS): > 100 µM
TGI (KM12 colon): > 100 µM
TGI (TK-10 renal): > 100 µM
TGI (U251 CNS): > 100 µM
TGI (UO-31 renal): > 100 µM
TGI (A549 NSCLC): > 100 µM
TGI (COLO 205 colon): > 100 µM
TGI (BT-549 breast): > 100 µM
TGI (SK-MEL-5 melanoma): > 100 µM

CC1=Nc2ccccc2OC(C)=C1N=Nc1ccc2nc(C)[nH]c2c1
TGI (SF-295 CNS): > 100 µM
TGI (KM12 colon): > 100 µM
TGI (TK-10 renal): > 100 µM
TGI (U251 CNS): > 100 µM
TGI (SK-MEL-28 melanoma): > 100 µM
TGI (A549 NSCLC): > 100 µM
TGI (COLO 205 colon): > 100 µM
TGI (BT-549 breast): > 100 µM

Nn1c(-c2ccccc2)n[nH]c1=O
TGI (SF-295 CNS): > 100 µM
TGI (KM12 colon): > 100 µM
TGI (TK-10 renal): > 100 µM
TGI (U251 CNS): > 100 µM
TGI (UO-31 renal): > 100 µM
TGI (SK-MEL-28 melanoma): > 100 µM
TGI (A549 NSCLC): > 100 µM
TGI (COLO 205 colon): > 100 µM
TGI (BT-549 breast): > 100 µM
TGI (SK-MEL-5 melanoma): > 100 µM

Nc1nccc(-c2c[nH]c3cc(Br)ccc23)n1
TGI (SF-295 CNS): > 100 µM
TGI (KM12 colon): 80.9 µM
TGI (TK-10 renal): 59 µM
TGI (U251 CNS): > 100 µM
TGI (UO-31 renal): 39 µM
TGI (SK-MEL-28 melanoma): 86.8 µM
TGI (A549 NSCLC): 35.5 µM
TGI (COLO 205 colon): > 100 µM
TGI (BT-549 breast): > 100 µM
TGI (SK-MEL-5 melanoma): 36.7 µM

Cc1ccccc1OC(C)C(=O)NN1C(=O)CSC1c1ccccc1 (configuration not stated)
TGI (SF-295 CNS): > 100 µM
TGI (KM12 colon): > 100 µM
TGI (TK-10 renal): > 100 µM
TGI (U251 CNS): > 100 µM
TGI (UO-31 renal): > 100 µM
TGI (SK-MEL-28 melanoma): > 100 µM
TGI (A549 NSCLC): > 100 µM
TGI (COLO 205 colon): > 100 µM
TGI (BT-549 breast): > 100 µM
TGI (SK-MEL-5 melanoma): > 100 µM

COc1ccc(N=NC(=Nc2ccccc2)c2ccc(N(CCC#N)CCC#N)cc2)cc1
TGI (SF-295 CNS): > 100 µM
TGI (KM12 colon): > 100 µM
TGI (TK-10 renal): > 100 µM
TGI (U251 CNS): > 100 µM
TGI (UO-31 renal): > 100 µM
TGI (SK-MEL-28 melanoma): > 100 µM
TGI (A549 NSCLC): > 100 µM
TGI (COLO 205 colon): 28.6 µM
TGI (BT-549 breast): > 100 µM
TGI (SK-MEL-5 melanoma): > 100 µM

CC(=O)Nn1c(=S)[nH]c2ccccc21
TGI (SF-295 CNS): > 100 µM
TGI (KM12 colon): > 100 µM
TGI (TK-10 renal): > 100 µM
TGI (U251 CNS): > 100 µM
TGI (UO-31 renal): > 100 µM
TGI (SK-MEL-28 melanoma): > 100 µM
TGI (A549 NSCLC): > 100 µM
TGI (COLO 205 colon): > 100 µM
TGI (BT-549 breast): > 100 µM
TGI (SK-MEL-5 melanoma): > 100 µM

Cc1cccc(Cn2c3c(c4cc(O)ccc42)C(=O)c2ccccc2C3=O)c1
TGI (SF-295 CNS): 21.9 µM
TGI (KM12 colon): > 100 µM
TGI (TK-10 renal): > 100 µM
TGI (U251 CNS): 88.3 µM
TGI (UO-31 renal): > 100 µM
TGI (SK-MEL-28 melanoma): > 100 µM
TGI (A549 NSCLC): > 100 µM
TGI (COLO 205 colon): > 100 µM
TGI (BT-549 breast): > 86.7 µM
TGI (SK-MEL-5 melanoma): > 100 µM

COc1ccc(C(=C2C=CC=C2)c2ccc(OC)cc2)cc1
TGI (SF-295 CNS): 54.4 µM
TGI (KM12 colon): > 100 µM
TGI (TK-10 renal): > 100 µM
TGI (U251 CNS): 71.6 µM
TGI (UO-31 renal): > 100 µM
TGI (SK-MEL-28 melanoma): > 100 µM
TGI (A549 NSCLC): > 100 µM
TGI (COLO 205 colon): 43.5 µM
TGI (BT-549 breast): > 100 µM
TGI (SK-MEL-5 melanoma): 95.3 µM

CC1=C(Cl)C=CP(=O)(Oc2ccccc2)C1 (configuration not stated)
TGI (SF-295 CNS): > 100 µM
TGI (KM12 colon): > 100 µM
TGI (U251 CNS): > 100 µM
TGI (UO-31 renal): > 100 µM
TGI (SK-MEL-28 melanoma): > 100 µM
TGI (A549 NSCLC): > 100 µM
TGI (COLO 205 colon): > 100 µM
TGI (SK-MEL-5 melanoma): > 100 µM

Oc1ccc2c(c1)c1c(n2CCN2CCOCC2)-c2ccccc2CC1
TGI (SF-295 CNS): > 100 µM
TGI (KM12 colon): 35.8 µM
TGI (TK-10 renal): 77.9 µM
TGI (U251 CNS): > 100 µM
TGI (UO-31 renal): > 100 µM
TGI (SK-MEL-28 melanoma): 55.6 µM
TGI (BT-549 breast): > 100 µM

Cc1ccc(NC(=O)CC2Sc3ccccc3NC2=O)cc1C (configuration not stated)
TGI (SF-295 CNS): > 100 µM
TGI (KM12 colon): > 100 µM
TGI (TK-10 renal): > 100 µM
TGI (U251 CNS): > 100 µM
TGI (UO-31 renal): > 100 µM
TGI (SK-MEL-28 melanoma): > 100 µM
TGI (A549 NSCLC): > 100 µM
TGI (COLO 205 colon): > 100 µM
TGI (SK-MEL-5 melanoma): > 100 µM
